# Experimental data: PubChem BioAssay (NCI)
#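 Growth conditions: 96-well plates. Treatment: test compound, 48 hours, 5 concentrations. Analysis: linear interpolation between bracketing concentrations; unreached endpoints set to highest concentration. Here, GI50 denotes the concentration required for 50% inhibition of growth. At the TGI there is no net growth.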
# Key:
# Assay in all cases: growth of human tumour cells (NCI), 48 h
# [1] = test system: HCC-2998 colon
# [2] = test system: HOP-92 NSCLC
# [3] = test system: K-562 leukemia
# [4] = test system: SK-MEL-28 melanoma
# [5] = test system: CCRF-CEM leukemia
# [6] = test system: SR leukemia
# [7] = test system: MALME-3M melanoma
# [8] = test system: IGROV1 ovarian
# [9] = test system: MDA-MB-231 breast
# [10] = test system: DU-145 prostate
Structure (SMILES),TGI [1],TGI [2],TGI [3],TGI [4],TGI [5],TGI [6],TGI [7],TGI [8],GI50 [9],TGI [9],GI50 [1],GI50 [2],GI50 [3],GI50 [4],GI50 [5],GI50 [6],GI50 [7],GI50 [8],TGI [10],GI50 [10]
CC(C)Cc1ccc(C(C)/C=C2\CCC(CN3CCCC3)C2=O)cc1 (stereo not drawn),19.3 µM,38 µM,> 100 µM,28.4 µM,8.71 µM,5.18 µM,36.1 µM,19 µM,–,–,–,–,–,–,–,–,–,–,–,–
C/C=C1\C(=O)O[C@@H]2C1C[C@@H]1O[C@H]2[C@H](C)CCC/C(C)=C/CC[C@@]1(C)O (stereo partly drawn),6.33 µM,31.5 µM,> 100 µM,21.9 µM,11.8 µM,> 100 µM,18.5 µM,3.32 µM,8.36 µM,21.7 µM,2.95 µM,7.62 µM,9.72 µM,0.38 µM,3.53 µM,2.41 µM,3.47 µM,1.29 µM,–,–
c1ccc2c(c1)nnn2CNc1ccc(N2CCOCC2)cc1,> 100 µM,> 100 µM,> 100 µM,> 100 µM,> 100 µM,> 100 µM,> 100 µM,> 100 µM,–,–,–,–,–,–,–,–,–,–,–,–
Cc1[nH]c2ccccc2c1C1CC(=O)NC1=O (stereo not drawn),> 100 µM,–,> 100 µM,> 100 µM,> 100 µM,–,> 100 µM,> 100 µM,–,–,–,–,–,–,–,–,–,–,–,–
N#Cc1ccc(-c2nc3ccc(Cl)cc3[nH]2)cc1,> 100 µM,> 100 µM,> 100 µM,–,> 100 µM,> 100 µM,–,> 100 µM,–,> 100 µM,–,–,–,–,–,–,–,–,–,–
S=P(c1ccccc1)(c1ccccc1)C1(C2(P(=S)(c3ccccc3)c3ccccc3)CC2)CC1,> 100 µM,–,> 100 µM,> 100 µM,> 100 µM,> 100 µM,–,> 100 µM,–,–,–,–,–,–,–,–,–,–,–,–
O=C1NC(=O)C(=O)C(c2nc3ccccc3s2)C1=O,> 100 µM,> 100 µM,–,> 100 µM,> 100 µM,> 100 µM,> 100 µM,> 100 µM,–,–,–,–,–,–,–,–,–,–,–,–
CCC(O)(c1ccc(OC)cc1)C(c1ccc(OCc2ccccc2)cc1)c1ccc(OCc2ccccc2)cc1 (stereo not drawn),> 100 µM,> 100 µM,> 100 µM,> 100 µM,> 100 µM,> 100 µM,> 100 µM,> 100 µM,–,–,–,–,–,–,–,–,–,–,–,–
CC(Oc1ccc(OCC2CCCCC2)cc1)C(=O)O (stereo not drawn),–,–,> 100 µM,> 100 µM,> 100 µM,–,> 100 µM,> 100 µM,–,–,–,–,–,–,–,–,–,–,–,–
O=C(N/C(=C\c1ccc([N+](=O)[O-])cc1)c1nc2ccc(Cl)cc2[nH]1)c1ccccc1,33.8 µM,34.3 µM,52.7 µM,83.7 µM,95.1 µM,63.3 µM,97.9 µM,43.8 µM,–,–,–,–,–,–,–,–,–,–,–,–
NC1=NC(c2ccccc2)CC(c2cc(Cl)cc(Br)c2O)=N1 (stereo not drawn),26.4 µM,38.2 µM,17.4 µM,28.9 µM,35.6 µM,> 100 µM,15.9 µM,30.8 µM,–,–,–,–,–,–,–,–,–,–,–,–
CCOC(=O)/C(C#N)=C\C=C1/C=CNC2=NCCN21,> 100 µM,–,> 100 µM,> 100 µM,> 100 µM,> 100 µM,> 100 µM,> 100 µM,–,–,–,–,–,–,–,–,–,–,–,–
Cc1ccc(C(=O)CCC2C(=O)CC(C)(C)CC2=O)cc1,> 100 µM,> 100 µM,–,> 100 µM,55.1 µM,65.5 µM,–,> 100 µM,–,> 100 µM,–,–,–,–,–,–,–,–,> 100 µM,–
O=C(Nc1ccc(Cl)cc1)c1cc2cc(F)ccc2cc1O,> 100 µM,0.809 µM,> 100 µM,> 100 µM,15.6 µM,–,4.11 µM,> 100 µM,1.55 µM,5.29 µM,3.13 µM,0.288 µM,0.491 µM,1.75 µM,3.35 µM,–,0.613 µM,2.28 µM,> 100 µM,2.18 µM
CC(=O)O[C@H]1CCC2[C@@H]3CCC4Nc5c(cnn5-c5ccccc5)C[C@]4(C)C3CC[C@@]21C (stereo partly drawn),25.3 µM,–,74.3 µM,–,39.5 µM,–,35.1 µM,> 100 µM,–,–,–,–,–,–,–,–,–,–,–,–
O=C(COc1ccc(Cl)cc1)N1N=C(c2ccc([N+](=O)[O-])o2)CC1(O)c1ccccc1 (stereo not drawn),16.1 µM,37.7 µM,29.7 µM,25.1 µM,–,23.8 µM,23.4 µM,42 µM,–,–,–,–,–,–,–,–,–,–,–,–
NCCCn1c2c(c3cc4c(cc3c1=O)OCO4)C(=O)c1ccccc1-2,0.718 µM,2.11 µM,0.602 µM,–,0.379 µM,–,–,–,1.45 µM,2.88 µM,0.237 µM,0.437 µM,0.181 µM,–,0.0279 µM,–,–,–,2.63 µM,0.907 µM
C[C@@H](NC1CCC[C@@H]1O)c1ccccc1 (stereo partly drawn),> 100 µM,> 100 µM,> 100 µM,> 100 µM,> 100 µM,–,> 100 µM,> 100 µM,–,–,–,–,–,–,–,–,–,–,–,–
COC1OC(CBr)C(OC(c2ccccc2)(c2ccccc2)c2ccccc2)C(OC(c2ccccc2)(c2ccccc2)c2ccccc2)C1OC(c1ccccc1)(c1ccccc1)c1ccccc1 (stereo not drawn),> 100 µM,52.4 µM,> 100 µM,> 100 µM,> 100 µM,> 100 µM,> 100 µM,> 100 µM,–,–,–,–,–,–,–,–,–,–,> 100 µM,–
CC1=C(/C=C/C2=CC(=C\C(=O)O)/CC(C3=C(C)CCCC3(C)C)C2)C(C)(C)CCC1 (stereo not drawn),–,23.7 µM,–,29.5 µM,–,24.2 µM,34.1 µM,26.4 µM,–,–,–,–,–,–,–,–,–,–,–,–
O=C(O)CCSC(=O)Nc1cccc([N+](=O)[O-])c1,> 100 µM,–,> 100 µM,> 100 µM,> 100 µM,> 100 µM,–,> 100 µM,–,–,–,–,–,–,–,–,–,–,–,–
O=C(O)CN(c1ccccc1)S(=O)(=O)c1ccc(Cl)cc1,–,> 100 µM,> 100 µM,> 100 µM,> 100 µM,–,> 100 µM,> 100 µM,–,–,–,–,–,–,–,–,–,–,–,–
COC1CC2C=CC3C4OC2(/C(C)=C/C(C)C(C(C)O)OC1=O)C3C(O)C(C)C4OC(=O)c1ccc[nH]1 (stereo not drawn),> 100 µM,> 100 µM,–,> 100 µM,> 100 µM,77 µM,–,> 100 µM,–,> 100 µM,–,–,–,–,–,–,–,–,> 100 µM,–
Cc1ccc2c(N/N=C\c3ccco3)cc(C)nc2n1,7.4 µM,–,11.2 µM,5.35 µM,6.37 µM,6.07 µM,–,14.8 µM,3.53 µM,13.5 µM,2.7 µM,–,3.02 µM,2.11 µM,2.23 µM,2.15 µM,–,3.41 µM,20.1 µM,6.79 µM
